Target: human GPR17 short isoform (Homo sapiens, UniProt Q13304)
Assay: GPR17 cAMP assay (TR-FRET cAMP quantification, antagonist mode)
Format: cell-based
Conditions: CHO-K1 cells stably expressing human GPR17 short isoform; EC80 of agonist MDL29,951; forskolin 15µM; IBMX 0.5mM; 30 minutes at room temperature; read-out: hGPR17 cAMP IC50
Method in brief: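 CHO-K1 cells stably expressing untagged human GPR17 short isoform, 10'000 cells/well in HBSS/10mM HEPES/0.1% BSA pH 7.4. Compounds added with EC80 MDL29,951 plus 0.5mM IBMX, then 15µM forskolin; 30 min at room temperature. cAMP read by TR-FRET after 90 min lysis; normalized to reference antagonist maximal activity, sigmoidal fit.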

human GPR17 short isoform, sequence (Q13304 29-367): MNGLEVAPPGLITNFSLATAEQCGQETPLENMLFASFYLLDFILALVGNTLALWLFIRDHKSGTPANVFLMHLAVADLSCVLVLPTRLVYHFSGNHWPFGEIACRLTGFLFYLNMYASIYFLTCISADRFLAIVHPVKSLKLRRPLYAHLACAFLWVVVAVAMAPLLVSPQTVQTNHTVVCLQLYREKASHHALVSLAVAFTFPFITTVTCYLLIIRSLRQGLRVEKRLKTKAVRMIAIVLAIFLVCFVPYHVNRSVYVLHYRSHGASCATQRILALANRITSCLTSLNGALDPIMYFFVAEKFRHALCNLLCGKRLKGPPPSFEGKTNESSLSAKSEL

Row | SMILES | IC50 [nM]
1 | COc1nc(NS(=O)(=O)c2c[nH]c3c(-c4cnco4)c(Cl)ccc23)nc(OC)c1OC(F)F [Example 117, 6-chloro-N-[5-(difluoromethoxy)-4,6-dimethoxy-pyrimidin-2-yl]-7-oxazol-5-yl-1H-indole-3-sulfonamide] | 106
2 | COc1nc(NS(=O)(=O)c2c[nH]c3c(-c4cnoc4)c(Cl)ccc23)nc(OC)c1OCC(F)F [Example 118, 6-chloro-N-[5-(2,2-difluoroethoxy)-4,6-dimethoxy-pyrimidin-2-yl]-7-isoxazol-4-yl-1H-indole-3-sulfonamide] | 63
3 | COc1nc(NS(=O)(=O)c2c[nH]c3c(-c4cnoc4)c(Cl)ccc23)nc(OC)c1OC(F)F [Example 119, 6-chloro-N-[5-(difluoromethoxy)-4,6-dimethoxy-pyrimidin-2-yl]-7-isoxazol-4-yl-1H-indole-3-sulfonamide] | 129
4 | COc1nc(NS(=O)(=O)c2c[nH]c3c(-c4cscn4)c(Cl)ccc23)nc(OC)c1OC(F)F [Example 120, 6-chloro-N-[5-(difluoromethoxy)-4,6-dimethoxy-pyrimidin-2-yl]-7-thiazol-4-yl-1H-indole-3-sulfonamide] | 149
5 | COc1nc(NS(=O)(=O)c2c[nH]c3c(-c4ncc5n4CCC5)cccc23)nc(OC)c1CC(F)F [Example 121, N-[5-(2,2-difluoroethyl)-4,6-dimethoxy-pyrimidin-2-yl]-7-(6,7-dihydro-5H-pyrrol[1,2-c]imidazol-3-yl)-1H-indole-3-sulfonamide] | 46

Reference: patent EP4562003B1, “NOVEL 7-SUBSTITUTED INDOLE SULFONAMIDE DERIVATIVES” (F. Hoffmann-La Roche AG, priority 2022, dated 2024)
